Results: patent US20120053182A1, “METHODS OF ALLEVIATING OR TREATING SIGNS AND/OR SYMPTOMS ASSOCIATED WITH MODERATE TO SEVERE PARKINSON'S DISEASE” (SCHERING CORPORATION, priority 2009, published 2012)
Where two headings read alike, the source gives them in different places.

Legend:
[1] = Pharmacokinetics after oral administration to healthy human volunteers; format: in vivo; conditions: composition providing about 5 mg, serum; for AUC: human, po, 5 mg, healthy human volunteers
[2] = tested on: patients suffering from Parkinson's disease; experiment: Clinical trial in patients with moderate to severe Parkinson's disease receiving L-dopa therapy; format: in vivo, human
Protocol: A clinical trial was carried out using 253 patients suffering from Parkinson's disease and receiving L-dopa therapy.
These patients were continued on their L-dopa therapy and randomized to receive in addition either a placebo (n=49), a composition administered orally BID in an amount providing 1 mg of the compound of Formula I (n=49), a composition administered orally BID in an amount providing 2 mg of the compound of Formula I (n=49), a composition administered orally BID in an amount providing 5 mg of the compound of Formula I (n=49), or a composition administered orally BID in an amount providing 10 mg of the compound of Formula I (n=57). This treatment was continued for 12 weeks while the patients kept a diary recording the “Off-time” periods, “On-time” periods (recording whether “On-time” was accompanied by dyskinesia or troubling dyskinesia) and their total amount of sleep time. These patients were also interviewed clinically and were evaluated as well in accordance with the UPDRS rating scale, as well as for when, and the duration of, sleep attacks experienced during the study. Blood chemistry was followed clinically at regular intervals.
Moreover, with reference to FIG. 3, assessment of patients was made using the Unified Parkinson's Disease Rating Scale (UPDRS) following several weeks of administration. […] With reference to FIG. 3, for example, UPDRS, part III scores were improved by showing a decrease of at least about 3 points below the baseline score at the start of the study.

[3] = Bioavailability by age or sex in healthy human volunteers; format: in vivo; conditions: composition used in the patient study
A2a receptors = molecular target: T1, A2a receptors (Homo sapiens, UniProt P29274); experiment: PET scan receptor site occupancy study in healthy human volunteers; format: in vivo
T1 construct: PET scans of a human brain were obtained; from tissue; host or cells: brain of living healthy human volunteers (in vivo PET)
T1 sequence (P29274 whole entry): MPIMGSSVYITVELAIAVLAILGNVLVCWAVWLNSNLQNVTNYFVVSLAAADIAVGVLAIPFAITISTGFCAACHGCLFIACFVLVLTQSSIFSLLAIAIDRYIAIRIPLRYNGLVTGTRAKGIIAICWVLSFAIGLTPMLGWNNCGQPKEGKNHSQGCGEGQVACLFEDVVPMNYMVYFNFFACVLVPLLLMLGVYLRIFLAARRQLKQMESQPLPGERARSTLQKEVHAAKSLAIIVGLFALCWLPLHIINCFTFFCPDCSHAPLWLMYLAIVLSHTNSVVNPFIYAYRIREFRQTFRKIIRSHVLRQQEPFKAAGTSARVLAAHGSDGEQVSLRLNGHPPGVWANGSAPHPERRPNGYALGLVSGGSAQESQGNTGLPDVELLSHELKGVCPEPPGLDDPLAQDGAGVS
Protocol: In a separate study with healthy human volunteers, and with reference to FIG. 5, PET scans of a human brain were obtained after IV administration to a subject of a composition intravenous administration of the compound of Formula II which had been labeled with ^11C-radio-isotope and then after an interval subsequent intravenous administered the compound of Formula I.
This study was carried out using 18 subjects. Capsules containing a composition providing the compound of Formula I (unlabelled) in amounts of 10, 50, or 200 mg were also administered to a subset of test subjects prior to injection of the radio-labeled compound of Formula II. Using the information obtained from the PET scan regarding the extent, location, and inhibition of radiotracer binding permitted calculation of binding potentials for the compound of Formula I. The test subjects were also evaluated for plasma levels of the compound of Formula I during the study. […] These studies also indicate that the compound of Formula I has a selectivity for the A2a receptor site of 20,000:1 relative to binding at A1, A2b, and A3 receptor sites. This study is consistent with a therapeutic level of plasma concentration being provided by administering a composition orally which provides a human subject to whom it is administered with from at least about 2 mg of the compound of Formula I to about 10 mg of the compound of Formula I and preferably 5 mg of the compound of Formula I. It is believed that BID dosing of a composition providing from about 5 mg to about 50 mg of the compound of Formula I will provide at least about 50% receptor site occupancy for at least about 12 hours/day in at least about 80% of the human population and at least about 80% receptor site occupancy for at least about 18 hours/day in at least about 75% of the population.

[4] = tested on: akathisia induced by administration of Haldol; experiment: Haldol-induced akathisia in healthy volunteers; format: in vivo, human; conditions: composition providing about 10 mg, FIG. 4
Source text: It is believed that a composition which provides an effective amount of the compound of Formula I will also prevent feelings of restlessness, of example, Haldol-induced akathesia.

[5] = at least about 2 mg BID oral, 12 weeks, with L-dopa, patient diary

`COCCOc1ccc(N2CCN(CCN3N=CC4c5nc(-c6ccco6)nn5C(N)=NC43)CC2)cc1` (centres unmarked) [compound of Formula I] showed a Cmax ([1]; average across healthy human volunteers) of 112 to 130 ng/mL, an AUC ([1]; AUC to time serum level drops below detectable limit, read-out: AUC(tf)) of 336 to 457 ng·h/mL and an AUC ([1]; read-out: AUC values measured from t=0 to 1 hr.) of 352 to 478 ng·h/mL. The “reports of common adverse events: Parkinsonism; somnolence; dyskinesia” value ([2]; 1, 2, 5 or 10 mg BID oral, 12 weeks, versus placebo group) was “no more frequency than was reported in the placebo group”, the “UPDRS part IV scores” value ([2]; amount sufficient to maintain steady state serum level of at least about 50 ng/ml) was “not accompanied by an increase” and the “decrease of UPDRS part III score below baseline” value ([2]; amount sufficient to maintain steady state serum level of at least about 50 ng/ml, FIG. 3, 2 hours post dose) was “at least 3 points”. For the same molecule, the “proportion of "On-time" with dyskinesia or other motor complications” value ([2]; at least about 2 mg BID oral, 12 weeks, with L-dopa) was “no rise”, the “periods of "Off-time"” value [2, 5] was “decrease” and the “periods of "On-time"” value [2, 5] was “improvement”. For the same molecule, the “average daily patient "Off-time" periods” value ([2]; at least about 5 mg BID oral) was “decrease”, the “average daily patient "On-time" periods” value ([2]; at least about 5 mg BID oral) was “increase” and the “objectional side effects, for example, dyskinesia, somnolence, or insomnia” value ([2]; at least about 5 mg BID oral) was “not accompanied by objectional side effects”. For the same molecule, the UPDRS score ([2]; at least about 5 mg BID oral, throughout the course of the study) was “improvement in UPDRS score which is maintained throughout the course of the study”, the “induction of sleep attacks” value ([2]; effective amount, patient assessment by clinicians) was “not associated with induction of sleep attacks” and the “patient sleep patterns (total daily sleep time)” value ([2]; from about 2 mg BID to about 10 mg BID, FIG. 2) was “does not significantly adversely effect patient sleep patterns”. For the same molecule, the “differences in bioavailability (AUC or Cmax) between groups divided by age or sex” value [3] was “no statistically significant differences”, the receptor site occupancy (A2a receptors; BID dosing about 5 mg to about 50 mg, for at least about 12 hours/day in at least about 80% of the human population) was “at least 50%” and the receptor site occupancy (A2a receptors; BID dosing about 5 mg to about 50 mg, for at least about 18 hours/day in at least about 75% of the population) was “at least 80%”. The “brain distribution by PET scan” value (A2a receptors; human brain, 11C-labelled compound of Formula II as radiotracer) was “high concentrations of the compound of Formula I in regions of the brain known to contain high levels of A2a receptors”, the receptor occupancy at 0.05 µg/mL (A2a receptors; human, plasma concentrations in excess of about 50 ng/ml, believed to be Emax) was about 90% and the “plasma concentration at 50% receptor site occupancy” value (A2a receptors; on average, PET, humans) was 6 ng/mL. For the same molecule, the receptor site occupancy (A2a receptors; plasma concentration levels exceeding about 25 ng/mL in humans) was “high level of receptor site occupancy” and the “suppression of Haldol-induced akathisia” value [4] was “successful in suppressing akathisia”.
